Test results reported in patent US12624039B2, “BTK inhibitors” (DIZAL (JIANGSU) PHARMACEUTICAL CO., LTD., priority 2020, dated 2026).
≈ marks a conversion by molar mass, not a printed value. Read-outs that look alike come from different tables or passages of the source.

Experiments:
Hu Mic Clint = assay type: in vitro ADME, human; details: for microsomal CLint: human, microsomes
DMSO solubility = assay type: physicochemical
[1] = In vitro rat hepatocytes clearance assay; assay type: in vitro ADME
Protocol: (§1) In Vitro Rat/Human Hepatocytes Clearance Assay
(§2) Rat hepatocytes in male gender and human hepatocytes in mixed gender were obtained from commercial vendors (e.g., BioreclamationIVT) and stored at −150° C. prior to use. 10 mM stock solutions of tested compounds were prepared in DMSO. Thawing medium and supplement incubation medium (serum-free) were placed in a 37° C. water bath for at least 15 minutes prior to use. Stock solutions were diluted to 100 μM by combining 198 μL acetonitrile and 2 μL of 10 mM stock solution.
(§3) Vials of cryopreserved hepatocytes were removed from storage, ensured that vials remain at cryogenic temperatures. The vials were thawed in a 37° C. water bath with gently shaking. Vials were kept in a water bath until all ice crystals had dissolved and were no longer visible. Vials were sprayed with 70% ethanol before being transferred to a biosafety cabinet. And then the contents were poured into the 50 mL thawing medium conical tube. Vials were centrifuged at 100 g for 10 minutes at room temperature. Thawing medium was aspirated and hepatocytes were resuspended with serum-free incubation medium to yield ^˜1.5×10^6 cells/mL.
(§4) Cell viability and density were counted using a Trypan Blue exclusion, and then cells were diluted with serum-free incubation medium to a working cell density of 1×10^6 viable cells/ml. A portion of the hepatocytes at 1×10^6 viable cells/mL was boiled for 10 min prior to adding to the plate as negative control to eliminate the enzymatic activity so that little or no substrate turnover should be observed. The inactivated hepatocytes were used to prepare negative samples, which were used to exclude the misleading factor that resulted from instability of chemical itself.
(§5) Aliquots of 247.5 μL hepatocytes were dispensed into each well of a 96-well non-coated plate. The plate was placed in the incubator on an orbital shaker for approximately 10 minutes. Aliquots of 2.5 μL of the 100 μM test compounds were added into respective wells of the non-coated 96-well plate to start the reaction. This assay was performed in duplicate. The plate was incubated in the incubator on an orbital shaker for the designed time points. 20 μL of contents were transferred and mixed with 6 volumes (120 μL) of cold acetonitrile with internal standard to terminate the reaction at time points of 5, 15, 30, 45, 60, 80 and 100 minutes. Samples were centrifuges for 20 minutes at 4000 g and aliquots of 100 μl of the supernatants were used for LC-MS/MS analysis for measurement of test compounds.
(§6) In vitro hepatocyte clearance was estimated based on determination of elimination half-life (T1/2) of compounds disappearance from their initial concentrations. Peak area ratios of each compound (test or control) to IS was calculated. Ln (% Control) versus Incubation Time (min) curve was plotted, and the slope of a linear fitting line was calculated. Drug elimination rate constant k (min-1), T1/2 (min), and in vitro intrinsic clearance CLint (μL/min/E6) was calculated according to the following equations: k=−slope T1/2=0.693/k CLint=k/Chep • Where Chep (cells×μL-1) is the cell concentration in the incubation system. Procedure for Log D Determination

[2] = Protein binding in human plasma by equilibrium dialysis; assay type: in vitro ADME; details: 18 hours at 37° C.; for fraction unbound at 18 h, 5 μM: human, plasma, pH 7.4, human plasma, read-out: hPPB (fu %); for hPPB (fu %): human plasma, 5 μM, fraction unbound
Protocol: (§7) [formula] DF means the dilution factor. Procedure for Protein Binding Measurements in Human Plasma by Using Equilibrium Dialysis
Add 597 μL of blank plasma into each vial of a new plastic plate or separate plastic tube by addition of 3 μL of the working solution of each cassette, vortex at 1,000 rpm for 5 minutes. The final percent volume of organic solvent is 0.5% and the final concentration for test compound is 5 μM. Immediately transfer 50 μL of the spiked plasma suspension to a 96-well plate to act as T=0 control sample. The samples are treated the same as the samples after incubation. Place all remaining spiked plasma in the incubator for the duration of the study.
Place inserts open end up into the wells of the base plate. Add 500 μL of phosphate buffer (pH 7.4) to the buffer chamber, which is indicated by the white ring. Add 300 μL of spiked plasma sample into the sample chamber, which is indicated by the red ring. Cover the unit with gas permeable lid and incubate for 18 hours at 37° C. at 300 rpm with 5% CO2 on an orbital shaker in the CO2 incubator. At the end of incubation, remove lid and pipette 50 μL of post-dialysis samples from both buffer and plasma chambers into separated 96-well plate for analysis, respectively.
At the same time, the remaining spiked plasma sample in the plastic plate or separate plastic tube is incubated for 18 hours at 37° C. with 5% CO2 in the CO2 incubator. At T=18 hours, transfer 50 μL of the original spiked plasma suspension to the 96-well plate for analysis.
Add 50 μL of Human plasma to the buffer samples, and an equal volume of PBS to the collected plasma samples. Vortex the plate at 1,000 rpm for 2 minutes and add 400 μL of acetonitrile containing an appropriate internal standard (IS) to precipitate protein and release compound. Vortex at 1,000 rpm for 10 minutes. Centrifuge for 30 minutes at 4,000 rpm. Transfer 250 μl of the supernatant to new 96-well plates and centrifuge again (4,000 rpm, 30 minutes). Then transfer 100 μL of the supernatant to new 96-well plates for analysis. Add 100 μL of distilled water to each sample and vortex for 5 minutes at 1,000 rpm for analysis by LC-MS/MS. All compounds are tested in singlicate at 5 μM in human plasma.
All calculations are carried out using Microsoft Excel.
Calculate the percentage of unbound, percentage of bound and recovery of test compound as follows: […]

[3] = In vitro human hepatocytes clearance assay; assay type: in vitro ADME
Protocol: as §1, §2, §3, §4, §5, §6

[4] = Log D determination (octanol/phosphate buffer); assay type: physicochemical; details: 25° C.
Protocol: 10 μL of working solution of each cassette is placed in order into respective 96-well rack position (Log D plate). Add 500 μL of saturated octanol into each vial of the above cap-less Log D plate followed by the addition of 500 μL of saturated phosphate buffer. Seal with a moulded PTFE/SIL 96-Well Plate Cover.
The samples are centrifuged at 4,000 rpm at 25° C. for 30 minutes to separate the phases. Pipette and syringe are used to pipette about 100 μL from the octanol and buffer phases to a new 96-well plate, respectively.
5 μL of octanol sample is transferred to a new 96-well plate, followed by addition of 495 μL of a mixture of H2O and acetonitrile containing internal standard (1:1) as 100 fold octanol samples. Vortex for 5 minutes at 1,000 rpm.
50 μL of 100 fold samples are transferred to new 96-well plate, followed by addition of 450 μL of a mixture of H2O and acetonitrile containing internal standard (1:1) as 1,000 fold octanol samples. Vortex for 5 minutes at 1,000 rpm.
The 1,000 folds octanol samples are serially diluted into 10,000, 100,000 and 1,000,000 folds with a mixture of H2O and acetonitrile containing internal standard (1:1).
50 μL of buffer samples are transferred to new 96-well plate, followed by addition of 450 μL of a mixture of H2O and acetonitrile containing internal standard (1:1) as 10 folds buffer samples. Vortex for 5 minutes at 1,000 rpm.
The 10 folds buffer samples are serially diluted into 100, 1,000 and 10,000 folds with a mixture of H2O and acetonitrile containing internal standard (1:1). The samples are evaluated by LC/MS/MS analysis. All compounds are tested in singlicate.
All calculations are carried out using Microsoft Excel. The concentrations of test compound in octanol/buffer solution are evaluated by LC/MS/MS. Calculate the Log D value of the test compound as follows:
as §7

Recombinant BTK(C481S) = molecular target: T1, Recombinant BTK(C481S) (Homo sapiens, UniProt Q06187, C481S); test: BTK C481S HTRF kinase assay; assay type: biochemical; details: 30 min pre-incubation, 120 min reaction
T1 construct: purchased SignalChem
T1 sequence (Q06187 whole entry C481S): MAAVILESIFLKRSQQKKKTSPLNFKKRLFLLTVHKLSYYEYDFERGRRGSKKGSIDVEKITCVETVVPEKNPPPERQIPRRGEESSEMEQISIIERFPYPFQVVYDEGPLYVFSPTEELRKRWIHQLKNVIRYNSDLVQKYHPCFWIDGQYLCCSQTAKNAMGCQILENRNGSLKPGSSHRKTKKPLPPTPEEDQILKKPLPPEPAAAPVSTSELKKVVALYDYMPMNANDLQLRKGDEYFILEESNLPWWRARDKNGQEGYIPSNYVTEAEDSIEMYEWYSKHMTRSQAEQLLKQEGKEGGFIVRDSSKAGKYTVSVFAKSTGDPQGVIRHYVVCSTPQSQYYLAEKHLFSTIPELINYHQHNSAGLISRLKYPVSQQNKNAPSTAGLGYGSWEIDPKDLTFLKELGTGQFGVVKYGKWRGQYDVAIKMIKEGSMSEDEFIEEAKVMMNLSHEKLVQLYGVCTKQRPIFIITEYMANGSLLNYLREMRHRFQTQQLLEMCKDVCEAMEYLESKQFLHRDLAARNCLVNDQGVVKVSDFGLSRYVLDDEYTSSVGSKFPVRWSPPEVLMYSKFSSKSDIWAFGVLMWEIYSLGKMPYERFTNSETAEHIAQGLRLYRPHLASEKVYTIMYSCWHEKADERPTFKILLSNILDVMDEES
Protocol: [The procedure below names another variant; the source lists this variant under the same test.] (§8) Recombinant BTK wild type (BTK WT) was purchased from Thermo fisher.
(§9) In brief, recombinant kinases were pre-incubated in the presence or absence of compound at room temperature for 30 minutes. The reaction was initiated by the addition of the ATP and substrate peptide which could be phosphorylated by kinases in the reaction. After 120 minutes incubation, the reaction was stopped by the addition of the detection reagent mix containing EDTA.

[5] = molecular target: T2, Recombinant BTK wild type (BTK WT) (Homo sapiens, UniProt Q06187); test: BTK WT HTRF kinase assay; assay type: biochemical; details: 30 min pre-incubation, 120 min reaction
T2 construct: purchased Thermo fisher
T2 sequence (Q06187 whole entry): as the sequence (Q06187 whole entry C481S) above, with S481C counted along it
Protocol: as §8, §9

[6] = phase I trial for multiple sclerosis (MS); cited from earlier work

SMILES	microsomal CLint (Hu Mic Clint) [µL/min/mg]	solubility (DMSO solubility; kinetic from dmso stock) [µM]	Rat Hep Clint [1] [μL/min/10∧6 cells]	fraction unbound at 18 h, 5 μM [2]	Human Hep Clint [3] [μL/min/10∧6 cells]	logD at 2 h [4]	IC50 (Recombinant BTK(C481S)) [nM]	IC50 [5] [nM]	Hu Mic Clint (Hu Mic Clint) [µL/min/mg]	solubility (DMSO solubility) [µM]	hPPB (fu %) [2] [%]	logD [4]	tolerability [6]
Nc1ncnn2c1c(-c1ccc(Oc3ccccc3)cc1F)nc2[C@H]1CC[C@H](CO)CC1 [reference compound]	19.3	< 1.6	254.9	0.0257	123.6	3.98	–	–	–	–	–	–	–
Nc1ncnn2c(C3CCC(CO)OC3)nc(-c3ccc(Oc4ccccc4)c(F)c3F)c12 (centres unmarked) [Compound 13, (5-(4-amino-5-(2,3-difluoro-4-phenoxyphenyl)imidazo[5,1-f][1,2,4]triazin-7-yl)tetrahydro-2H-pyran-2-yl)methanol]	–	–	21.4	–	5.9	–	3.81	3.29	<3	113 (≈ 51.2 µg/mL)	8.4	3.21	–
Nc1ncnn2c(C3CCC(CO)OC3)nc(-c3ccc(Oc4cccc(F)c4F)cc3)c12 (centres unmarked) [Compound 15, (5-(4-amino-5-(4-(2,3-difluorophenoxy)phenyl)imidazo[5,1-f][1,2,4]triazin-7-yl)tetrahydro-2H-pyran-2-yl)methanol]	–	–	7.9	–	2.1	–	6.11	6.72	<3	84.0 (≈ 38.1 µg/mL)	6.4	2.98	–
Nc1nccn2c1c(-c1ccc(Oc3ccccc3)cc1)nc2[C@H]1CC[C@H](CO)CC1 [reference compound]	141	< 1.6	119.3	0.0289	92.9	4.16	–	–	–	–	–	–	–
C=CC(=O)N1CCC[C@@H](n2c(=O)n(-c3ccc(Oc4ccccc4)cc3)c3c(N)nccc32)C1 [PRN2246]	–	–	–	–	–	–	–	–	–	–	–	–	well tolerated
